Reference: patent publication US4824829A, “Non-dusting antibiotic, anticoccidial premix compositions and a process for their manufacture” (American Cyanamid Company, priority 1985, dated 1989)

Assays:
[1] = Segregation study (drug accumulation in medicated poultry feed after two hours on drum roller); format: physicochemical
Protocol: The segregation test is performed in a commercially-blended poultry feed, supplemented with 1000 ppm (0.1%) of drug, using the premix prepared in Example 1 in one blend and pure drug with an equivalent amount of corncob grits in the other as indicated in Table IV below.
These materials are placed into new one-gallon Nalgene dense polyethylene jars and placed on a drum roller for two hours. At the end of the mixing time, the jars are sampled in the horizontal position to remove the material which has accumulated and packed in the neck (#1), then the jars are emptied without shaking or tapping, and a cross-sectional sample taken from the bulk (#2); finally, the empty jar is extracted and assayed for residual drug (#3).

[2] = in vivo; settings: rabbit, topical or ocular
[3] = Relative Dermal Toxicities (LD50 Rabbit Dermal Toxicity); settings: in vivo, topical or ocular, Female, maduramicin
[4] = emptied jar residue, feed with 1000 ppm drug
[5] = neck of jar, feed with 1000 ppm drug

| #2 Bulk sample, Assay ([1]; cross-sectional bulk sample, feed with 1000 ppm drug) [ppm] | #3 Bottle residue, Assay [1, 4] [ppm] | #3 Bottle residue, Total Drug [1, 4] [mg] | #3 Bottle residue, Weight [1, 4] [g] | separation of drug from the feed ([1]; mixed dry with feed) | actual amount of drug segregating, pure drug vs premix (times larger) ([1]; neck accumulation, pure drug relative to premix) | #1 Neck accumulation, Assay [1, 5] [ppm] | #1 Neck accumulation, Total Drug [1, 5] [mg] | #1 Neck accumulation, Weight [1, 5] [g] | Compound | tendency to accumulate in the spots of least movement ([1]; mixed dry with feed, neck of the bottle, vs premix) | LD50 [2] [mg/kg] | LD50 [3] [mg/kg] |
| --- | --- | --- | --- | --- | --- | --- | --- | --- | --- | --- | --- | --- |
| 1115 | 2300 | 1.85 | 0.80 | separates freely from the feed | more than seven | 1745 | 14.8 | 8.5 | COC1CC(OC2CC(C3OC(C)(O)C(C)CC3C)OC2C2(C)CCC(C3(C)CCC4(CC(O)C(C)C(C(C)C5OC(O)(CC(=O)O)C(C)C(OC)C5OC)O4)O3)O2)OC(C)C1OC (stereo not drawn) [Pure Drug] | greater tendency to accumulate in the spots of least movement |  |  |
|  |  |  |  |  |  |  |  |  | CO[C@@H]1[C@@H](OC)[C@H](C)[C@@](O)(CC(=O)O)O[C@H]1[C@H](C)[C@H]1O[C@@]2(CC[C@@](C)([C@H]3CC[C@@](C)([C@@H]4O[C@@H]([C@H]5O[C@](C)(O)[C@H](C)C[C@@H]5C)C[C@@H]4O[C@@H]4C[C@H](OC)[C@@H](OC)[C@H](C)O4)O3)O2)C[C@H](O)[C@H]1C [Composition 1, maduramicin] |  | 8.9 | 3.7 |
